Results taken from patent US20230210999A1, “TARGETED PROTEASE DEGRADATION (TED) PLATFORM” (EUBULUS BIOTHERAPEUTICS INC., priority 2020, published 2023).

How the values were obtained:
Type in all cases: cell-based, human
[1] = system: Daudi cells; test: Cell proliferation experiment, Daudi; details: Homo sapiens, Daudi, Daudi cells; read-out: Inhibitory activity IC50 on Daudi
Experimental: (§1) Reagents: RPMI-1640 medium, McCoy's 5A medium, IMDM medium, MEM medium, L-15 medium, fetal bovine serum. Penicillin-Streptomycin double antibody, trypsin, etc., 2-mercaptoethanol, NEAA, pyruvate, etc.
(§2) The cells were cultured in conventional ways, and the cells should be passed at least 2 generations before plating. Cells at the logarithmic growth phase were collected, prepared into single cell suspensions and counted. The concentration of cells was adjusted to the desired concentration, and cells were inoculated into a 96-well cell culture plate at 100 μl per well. 100 μL of complete medium of the test compound were added to each well, set up 2 duplicate wells for each concentration, and diluted with a 5-fold gradient, and continued to culture for 72 h. All cells were subjected to IC50 test for corresponding samples. The experimental results are shown in Test Example 4.
(§3) The fluorescence intensity of each well was detected using the Alarm blue method, and IC50 was calculated.
(§4) IC50 was calculated according to the following formula:
(§5) Y=Max+(Min−Max)/[1+(X/IC50)×Slope]
(§6) wherein Min, Max and Slope represent the minimum, maximum and slope respectively.

[2] = system: NCIH82 cells; test: Cell proliferation experiment, NCI-H82; details: Homo sapiens, NCI-H82, NCI-H82 cells; read-out: Inhibitory activity IC50 on NCI-H82
Experimental: as §1, §2, §3, §4, §5, §6

[3] = system: MV4;11 cells; test: Cell proliferation experiment (Alamar blue, 72 h), MV4;11; details: Homo sapiens, MV4-11, MV4;11 cells; read-out: Inhibitory activity IC50 on MV4;11
Experimental: as §1, §2, §3, §4, §5, §6

Structure (SMILES) | IC50 [1] | IC50 [2] | IC50 [3]
CCNC(=O)C#Cc1ccc2c(c1)NC(=O)/C2=C(\Nc1ccc(CNCCOCCOCCOCCOCC(=O)Nc2ccc3c(c2)CN(C2CCC(=O)NC2=O)C3=O)cc1)c1ccccc1 (centres unmarked) [UB-180963] | > 1 µM | > 1 µM | 0.01 to 0.1 µM
CCNC(=O)C#Cc1ccc2c(c1)NC(=O)/C2=C(\Nc1ccc(CNCCOCCOCCC(=O)Nc2cccc3c2CN(C2CCC(=O)NC2=O)C3=O)cc1)c1ccccc1 (centres unmarked) [UB-180964] | > 1 µM | > 1 µM | 0.1 to 1 µM
O=C1CCC(N2Cc3cc(C#CCCNCCOCCOCCOCCn4cc(-c5ccc(Nc6ncc7c(n6)-c6ccc(Cl)cc6C(c6c(F)cccc6F)=NC7)cc5)nn4)ccc3C2=O)C(=O)N1 (centres unmarked) [UB-180965] | > 1 µM | 0.1 to 1 µM | 0.1 to 1 µM
O=C1CCC(N2Cc3c(C#CCCOCCN[C@H]4CC[C@@H](n5cc(-c6ccc(Nc7ncc8c(n7)-c7ccc(Cl)cc7C(c7c(F)cccc7F)=NC8)cc6)nn5)CC4)cccc3C2=O)C(=O)N1 (some centres unmarked) [UB-180966] | > 1 µM | > 1 µM | > 1 µM
CCNC(=O)C#Cc1ccc2c(c1)NC(=O)/C2=C(\Nc1ccc(CNCCOCCOCCC(=O)Nc2ccc3c(c2)CN(C2CCC(=O)NC2=O)C3=O)cc1)c1ccccc1 (centres unmarked) [UB-180967] | 0.1 to 1 µM | > 1 µM | 0.1 to 1 µM
CC[C@@H]1C(=O)N(C)c2cnc(Nc3ccc(-c4nnc(C5CCC(NCCOCCC#Cc6cccc7c6CN(C6CCC(=O)NC6=O)C7=O)CC5)o4)cc3OC)nc2N1C1CCCC1 (some centres unmarked) [UB-180968] | 0.1 to 1 µM |  | < 0.01 µM
CC[C@@H]1C(=O)N(C)c2cnc(Nc3ccc(-c4cn(CCOCCOC[C@@H](N)CC#Cc5cccc6c5CN(C5CCC(=O)NC5=O)C6=O)nn4)cc3OC)nc2N1C1CCCC1 (some centres unmarked) [UB-180969] | 0.1 to 1 µM |  | 0.01 to 0.1 µM
CCNC(=O)C#Cc1ccc2c(c1)NC(=O)/C2=C(\Nc1ccc(CNCCOCCOCCOCCC(=O)N[C@H](C(=O)N2C[C@H](O)C[C@H]2C(=O)NCc2ccc(-c3scnc3C)cc2)C(C)(C)C)cc1)c1ccccc1 [UB-180970] | > 1 µM | > 1 µM | 0.1 to 1 µM
CCNC(=O)C#Cc1ccc2c(c1)NC(=O)/C2=C(\Nc1ccc(CNCCOCCOCCOCCC(=O)Nc2cccc3c2CN(C2CCC(=O)NC2=O)C3=O)cc1)c1ccccc1 (centres unmarked) [UB-180971] | > 1 µM | > 1 µM | 0.1 to 1 µM
CCNC(=O)C#Cc1ccc2c(c1)NC(=O)/C2=C(\Nc1ccc(CNCCOCCOCCOCCC(=O)Nc2ccc3c(c2)CN(C2CCC(=O)NC2=O)C3=O)cc1)c1ccccc1 (centres unmarked) [UB-180972] | 0.1 to 1 µM | 0.1 to 1 µM | 0.01 to 0.1 µM
O=C1CCC(N2Cc3cc(C#CCCNCCOCCOCCOCCn4cc([C@]5(Cc6cccc(Nc7nccs7)n6)CC[C@@H](Oc6cccc(Cl)c6F)CC5)nn4)ccc3C2=O)C(=O)N1 (some centres unmarked) [UB-180973] | > 1 µM | > 1 µM | 0.1 to 1 µM
O=C1CCC(N2Cc3c(C#CCCNCCOCCOCCOCCn4cc(-c5ccc(Nc6ncc7c(n6)-c6ccc(Cl)cc6C(c6c(F)cccc6F)=NC7)cc5)nn4)cccc3C2=O)C(=O)N1 (centres unmarked) [UB-180974] | > 1 µM | > 1 µM | 0.1 to 1 µM
O=C1CCC(N2Cc3c(C#CCCOCCN[C@H]4CC[C@H](n5cc(-c6ccc(Nc7ncc8c(n7)-c7ccc(Cl)cc7C(c7c(F)cccc7F)=NC8)cc6)nn5)CC4)cccc3C2=O)C(=O)N1 (some centres unmarked) [UB-180975] | > 1 µM | > 1 µM | > 1 µM
CC[C@@H]1C(=O)N(C)c2cnc(Nc3ccc(-c4cn([C@H]5CC[C@@H](NCCCCCC#Cc6ccc7c(c6)CN(C6CCC(=O)NC6=O)C7=O)CC5)nn4)cc3OC)nc2N1C1CCCC1 (some centres unmarked) [UB-180984] | 0.01 to 0.1 µM |  | < 0.01 µM
CC[C@@H]1C(=O)N(C)c2cnc(Nc3ccc(C(=O)N[C@H]4CC[C@@H](NCCCCCC#Cc5ccc6c(c5)CN(C5CCC(=O)NC5=O)C6=O)CC4)cc3OC)nc2N1C1CCCC1 (some centres unmarked) [UB-180985] | < 0.01 µM |  | < 0.01 µM
NC(=O)c1ccccc1Nc1nc(Nc2ccc(C3CCN(C(=O)NCCCCNCCC#Cc4ccc5c(c4)CN(C4CCC(=O)NC4=O)C5=O)CC3)cc2)ncc1Cl (centres unmarked) [UB-181206] | 0.1 to 1 µM | 0.1 to 1 µM | 
NC(=O)c1ccccc1Nc1nc(Nc2ccc(C3CCN(C(=O)NCCCNCCCC#Cc4ccc5c(c4)CN(C4CCC(=O)NC4=O)C5=O)CC3)cc2)ncc1Cl (centres unmarked) [UB-181207] | > 1 µM | > 1 µM | 
NC(=O)c1ccccc1Nc1nc(Nc2ccc(N3CCN(C(=O)NCCCCNCCC#Cc4ccc5c(c4)CN(C4CCC(=O)NC4=O)C5=O)CC3)cc2)ncc1Cl (centres unmarked) [UB-181208] | 0.01 to 0.1 µM | 0.1 to 1 µM | 
